Experimental data reported in US20210101874A1, “MICROBIOCIDAL OXADIAZOLE DERIVATIVES” (SYNGENTA PARTICIPATIONS AG, priority 2017, published 2021).

What was measured:
[1] = tested on: Glomerella lagenarium (Colletotrichum lagenarium); assay: Glomerella lagenarium (Colletotrichum lagenarium) liquid culture / cucumber / preventative (anthracnose); type: cell-based; details: Colletotrichum orbiculare; 20 ppm in the applied formulation; conidia in PDB nutrient broth, 24° C.; 3 to 4 days after application; compared to untreated; read-out: disease control (inhibition of growth measured photometrically)
Method in brief: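 Test compound, diluted from DMSO, was mixed in microtiter wells with fungal conidia taken from cryogenic storage and suspended in PDB nutrient broth. After 3 to 4 days at 24 °C, photometric growth measurement gave antifungal activity as a percentage of the untreated control.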

[2] = tested on: Puccinia recondita f. sp. Tritici; assay: Puccinia recondita f. sp. tritici / wheat / leaf disc curative (brown rust); type: in vivo; details: foliar, 200 ppm in the applied formulation, wheat leaf segments cv. Kanzler, applied 1 day after inoculation, compared to untreated, assessed 6 to 8 days after application, read-out: disease control
Experimental: Leaf disks or leaf segments of various plant species are cut from plants grown in a greenhouse. The cut leaf disks or segments are placed in multiwell plates (24-well format) onto water agar. The leaf disks are sprayed with a test solution before (preventative) or after (curative) inoculation. Compounds to be tested are prepared as DMSO solutions (max. 10 mg/ml) which are diluted to the appropriate concentration with 0.025% Tween20 just before spraying. The inoculated leaf disks or segments are incubated under defined conditions (temperature, relative humidity, light, etc.) according to the respective test system. A single evaluation of disease level is carried out 3 to 14 days after inoculation, depending on the pathosystem. Percent disease control relative to the untreated check leaf disks or segments is then calculated.
Wheat leaf segments cv. Kanzler are placed on agar in multiwell plates (24-well format). The leaf segments are then inoculated with a spore suspension of the fungus. Plates were stored in darkness at 19° C. and 75% relative humidity. The formulated test compound diluted in water was applied 1 day after inoculation. The leaf segments were incubated at 19° C. and 75% relative humidity under a light regime of 12 hours light/12 hours darkness in a climate cabinet and the activity of a compound was assessed as percent disease control compared to untreated when an appropriate level of disease damage appears in untreated check leaf segments (6 to 8 days after application).
The following compounds at 200 ppm in the applied formulation give at least 80% disease control in this test when compared to untreated control leaf disks under the same conditions, which show extensive disease development.

[3] = tested on: Puccinia recondita f. sp. Tritici; assay: Puccinia recondita f. sp. tritici / wheat / leaf disc preventative (brown rust); type: in vivo; details: foliar, 200 ppm in the applied formulation, wheat leaf segments cv. Kanzler, inoculated 1 day after application, compared to untreated, assessed 7 to 9 days after application, read-out: disease control
Method in brief: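 Wheat cv. Kanzler leaf segments on agar sprayed with diluted compound, inoculated with brown rust spores 1 day later. Kept at 19° C., 75% rh, 12 h light/dark; percent disease control versus untreated segments scored 7 to 9 days after application, compounds tested at 200 ppm.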

CS(=O)(=O)NCc1ccc(-c2noc(C(F)(F)F)n2)cc1 [Compound 2.13, N-[[4-[5-(trifluoromethyl)-1,2,4-oxadiazol-3-yl]phenyl]methyl] methanesulfon-amide]
≥ 80%: inhibition at 20 ppm [1] | pest or weed control at 200 ppm [2] | pest or weed control at 200 ppm [3]

CNS(=O)(=O)NCc1ccc(-c2noc(C(F)(F)F)n2)cc1 [Compound 2.14, N-(methylsulfamoyl)-1-[4-[5-(trifluoromethyl)-1,2,4-oxadiazol-3-yl]phenyl] methanamine]
≥ 80%: inhibition at 20 ppm [1] | pest or weed control at 200 ppm [2] | pest or weed control at 200 ppm [3]

C=CCS(=O)(=O)NCc1ccc(-c2noc(C(F)(F)F)n2)c(F)c1 [Compound 2.15, N-[[3-fluoro-4-[5-(trifluoromethyl)-1,2,4-oxadiazol-3-yl]phenyl]methyl] prop-2-ene-1-sulfonamide]
≥ 80%: inhibition at 20 ppm [1] | pest or weed control at 200 ppm [2] | pest or weed control at 200 ppm [3]

COC(=O)CCS(=O)(=O)NCc1ccc(-c2noc(C(F)(F)F)n2)c(F)c1 [Compound 2.16, methyl 3-[[3-fluoro-4-[5-(trifluoromethyl)-1,2,4-oxadiazol-3-yl]phenyl]methyl-sulfamoyl] propanoate]
≥ 80%: inhibition at 20 ppm [1] | pest or weed control at 200 ppm [2] | pest or weed control at 200 ppm [3]

COCCS(=O)(=O)NCc1ccc(-c2noc(C(F)(F)F)n2)c(F)c1 [Compound 2.17, N-[[3-fluoro-4-[5-(trifluoromethyl)-1,2,4-oxadiazol-3-yl]phenyl]methyl]-2-methoxy-ethanesulfon-amide]
≥ 80%: inhibition at 20 ppm [1] | pest or weed control at 200 ppm [2] | pest or weed control at 200 ppm [3]

C/C=C/S(=O)(=O)NCc1ccc(-c2noc(C(F)(F)F)n2)c(F)c1 [Compound 2.19, (E)-N-[[3-fluoro-4-[5-(trifluoromethyl)-1,2,4-oxadiazol-3-yl]phenyl]methyl] prop-1-ene-1-sulfonamide]
≥ 80%: inhibition at 20 ppm [1] | pest or weed control at 200 ppm [2] | pest or weed control at 200 ppm [3]

CCS(=O)(=O)NCc1ccc(-c2noc(C(F)(F)F)n2)c(F)c1 [Compound 2.24, N-[[3-fluoro-4-[5-(trifluoromethyl)-1,2,4-oxadiazol-3-yl]phenyl]methyl] ethanesulfon-amide]
≥ 80%: inhibition at 20 ppm [1] | pest or weed control at 200 ppm [2] | pest or weed control at 200 ppm [3]

CCS(=O)(=O)NCc1ccc(-c2noc(C(F)(F)F)n2)cc1F [Compound 2.25, N-[[2-fluoro-4-[5-(trifluoromethyl)-1,2,4-oxadiazol-3-yl]phenyl]methyl] ethanesulfon-amide]
≥ 80%: inhibition at 20 ppm [1] | pest or weed control at 200 ppm [2] | pest or weed control at 200 ppm [3]

CS(=O)(=O)NCc1ccc(-c2noc(C(F)(F)F)n2)c(F)c1 [Compound 2.26, N-[[3-fluoro-4-[5-(trifluoromethyl)-1,2,4-oxadiazol-3-yl]phenyl]methyl] methanesulfon-amide]
≥ 80%: inhibition at 20 ppm [1] | pest or weed control at 200 ppm [2] | pest or weed control at 200 ppm [3]

CS(=O)(=O)NCc1ccc(-c2noc(C(F)(F)F)n2)cc1F [Compound 2.27, N-[[2-fluoro-4-[5-(trifluoromethyl)-1,2,4-oxadiazol-3-yl]phenyl]methyl] methanesulfon-amide]
≥ 80%: inhibition at 20 ppm [1] | pest or weed control at 200 ppm [2] | pest or weed control at 200 ppm [3]

CNS(=O)(=O)NCc1ccc(-c2noc(C(F)(F)F)n2)c(F)c1 [Compound 2.28, 1-[3-fluoro-4-[5-(trifluoromethyl)-1,2,4-oxadiazol-3-yl]phenyl]-N-(methylsulfamoyl) methanamine]
≥ 80%: inhibition at 20 ppm [1] | pest or weed control at 200 ppm [2] | pest or weed control at 200 ppm [3]

CNS(=O)(=O)NCc1ccc(-c2noc(C(F)(F)F)n2)cc1F [Compound 2.29, 1-[2-fluoro-4-[5-(trifluoromethyl)-1,2,4-oxadiazol-3-yl]phenyl]-N-(methylsulfamoyl) methanamine]
≥ 80%: inhibition at 20 ppm [1] | pest or weed control at 200 ppm [2] | pest or weed control at 200 ppm [3]

CN(C)S(=O)(=O)NCc1ccc(-c2noc(C(F)(F)F)n2)c(F)c1 [Compound 2.30, 3-[4-[(dimethyl-sulfamoylamino)methyl]-2-fluoro-phenyl]-5-(trifluoromethyl)-1,2,4-oxadiazole]
≥ 80%: inhibition at 20 ppm [1] | pest or weed control at 200 ppm [2] | pest or weed control at 200 ppm [3]

CN(C)S(=O)(=O)NCc1ccc(-c2noc(C(F)(F)F)n2)cc1F [Compound 2.31, 3-[4-[(dimethyl-sulfamoylamino)methyl]-3-fluoro-phenyl]-5-(trifluoromethyl)-1,2,4-oxadiazole]
≥ 80%: inhibition at 20 ppm [1] | pest or weed control at 200 ppm [2] | pest or weed control at 200 ppm [3]

C=CCS(=O)(=O)NCc1ccc(-c2noc(C(F)(F)F)n2)cc1F [Compound 2.32, N-[[2-fluoro-4-[5-(trifluoromethyl)-1,2,4-oxadiazol-3-yl]phenyl]methyl] prop-2-ene-1-sulfonamide]
≥ 80%: inhibition at 20 ppm [1] | pest or weed control at 200 ppm [2] | pest or weed control at 200 ppm [3]

COCCS(=O)(=O)NCc1ccc(-c2noc(C(F)(F)F)n2)cc1F [Compound 2.34, N-[[2-fluoro-4-[5-(trifluoromethyl)-1,2,4-oxadiazol-3-yl]phenyl]methyl]-2-methoxy-ethanesulfon-amide]
≥ 80%: inhibition at 20 ppm [1] | pest or weed control at 200 ppm [2] | pest or weed control at 200 ppm [3]

C/C=C/S(=O)(=O)NCc1ccc(-c2noc(C(F)(F)F)n2)cc1F [Compound 2.36, (E)-N-[[2-fluoro-4-[5-(trifluoromethyl)-1,2,4-oxadiazol-3-yl]phenyl]methyl] prop-1-ene-1-sulfonamide]
≥ 80%: inhibition at 20 ppm [1] | pest or weed control at 200 ppm [2] | pest or weed control at 200 ppm [3]

Cn1ccc(S(=O)(=O)NCc2ccc(-c3noc(C(F)(F)F)n3)cc2)n1 [Compound 3.10, 1-methyl-N-[[4-[5-(trifluoromethyl)-1,2,4-oxadiazol-3-yl]phenyl]methyl] pyrazole-3-sulfonamide]
≥ 80%: inhibition at 20 ppm [1] | pest or weed control at 200 ppm [2] | pest or weed control at 200 ppm [3]

Cn1ccc(S(=O)(=O)NCc2ccc(-c3noc(C(F)(F)F)n3)c(F)c2)n1 [Compound 3.14, N-[[3-fluoro-4-[5-(trifluoromethyl)-1,2,4-oxadiazol-3-yl]phenyl]methyl]-1-methyl-pyrazole-3-sulfonamide]
≥ 80%: inhibition at 20 ppm [1] | pest or weed control at 200 ppm [2] | pest or weed control at 200 ppm [3]

O=S(=O)(NCc1ccc(-c2noc(C(F)(F)F)n2)c(F)c1)N1CCCC1 [Compound 3.17, N-[[3-fluoro-4-[5-(trifluoromethyl)-1,2,4-oxadiazol-3-yl]phenyl]methyl] pyrrolidine-1-sulfonamide]
≥ 80%: inhibition at 20 ppm [1] | pest or weed control at 200 ppm [2] | pest or weed control at 200 ppm [3]

O=S(=O)(NCc1ccc(-c2noc(C(F)(F)F)n2)c(F)c1)C1CC1 [Compound 3.19, N-[[3-fluoro-4-[5-(trifluoromethyl)-1,2,4-oxadiazol-3-yl]phenyl]methyl] cyclopropanesulfon-amide]
≥ 80%: inhibition at 20 ppm [1] | pest or weed control at 200 ppm [2] | pest or weed control at 200 ppm [3]

O=S(=O)(CC1CCOC1)NCc1ccc(-c2noc(C(F)(F)F)n2)c(F)c1 (stereo not drawn) [Compound 3.20, N-[[3-fluoro-4-[5-(trifluoromethyl)-1,2,4-oxadiazol-3-yl]phenyl]methyl]-1-tetrahydrofuran-3-yl-methanesulfonamide]
≥ 80%: inhibition at 20 ppm [1] | pest or weed control at 200 ppm [2] | pest or weed control at 200 ppm [3]

O=S(=O)(CC1CC1)NCc1ccc(-c2noc(C(F)(F)F)n2)c(F)c1 [Compound 3.21, 1-cyclopropyl-N-[[3-fluoro-4-[5-(trifluoromethyl)-1,2,4-oxadiazol-3-yl]phenyl]methyl] methanesulfonamide]
≥ 80%: inhibition at 20 ppm [1] | pest or weed control at 200 ppm [2] | pest or weed control at 200 ppm [3]

Cn1ccc(S(=O)(=O)NCc2ccc(-c3noc(C(F)(F)F)n3)cc2F)n1 [Compound 3.24, N-[[2-fluoro-4-[5-(trifluoromethyl)-1,2,4-oxadiazol-3-yl]phenyl]methyl]-1-methyl-pyrazole-3-sulfonamide]
≥ 80%: inhibition at 20 ppm [1] | pest or weed control at 200 ppm [2] | pest or weed control at 200 ppm [3]
